Laboratory results taken from PubChem BioAssay (NCI).
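Protocol summary: plate cells (96-well), add compound at 5 concentrations, incubate 48 h, interpolate endpoints linearly. Abbreviation: GI50, concentration required for 50% inhibition of growth. The concentration for full growth arrest is given as TGI.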

What was measured:
Assay in all cases: NCI tumour cell line growth inhibition, 48 h
HOP-62 NSCLC = tested on: HOP-62 NSCLC
DU-145 prostate = tested on: DU-145 prostate
OVCAR-3 ovarian = tested on: OVCAR-3 ovarian
UACC-257 melanoma = tested on: UACC-257 melanoma
KM12 colon = tested on: KM12 colon
BT-549 breast = tested on: BT-549 breast
NCI-H23 lung = tested on: NCI-H23 lung
MCF7 breast = tested on: MCF7 breast
NCI-H226 lung = tested on: NCI-H226 lung
CAKI-1 renal = tested on: CAKI-1 renal
SK-MEL-5 melanoma = tested on: SK-MEL-5 melanoma
M14 melanoma = tested on: M14 melanoma
SK-MEL-2 melanoma = tested on: SK-MEL-2 melanoma
SNB-19 CNS = tested on: SNB-19 CNS
LOX IMVI melanoma = tested on: LOX IMVI melanoma
T-47D breast = tested on: T-47D breast
EKVX NSCLC = tested on: EKVX NSCLC
SF-295 CNS = tested on: SF-295 CNS
RXF 393 renal = tested on: RXF 393 renal
HCT-15 colon = tested on: HCT-15 colon
SK-MEL-28 melanoma = tested on: SK-MEL-28 melanoma
MDA-MB-231 breast = tested on: MDA-MB-231 breast
SNB-75 CNS = tested on: SNB-75 CNS
SK-OV-3 ovarian = tested on: SK-OV-3 ovarian
HCC-2998 colon = tested on: HCC-2998 colon
K-562 leukemia = tested on: K-562 leukemia
A549 NSCLC = tested on: A549 NSCLC
SR leukemia = tested on: SR leukemia
786-0 renal = tested on: 786-0 renal
CCRF-CEM leukemia = tested on: CCRF-CEM leukemia
SN12C renal = tested on: SN12C renal
OVCAR-8 ovarian = tested on: OVCAR-8 ovarian
TK-10 renal = tested on: TK-10 renal
NCI-H522 lung = tested on: NCI-H522 lung
ACHN renal = tested on: ACHN renal
NCI-H460 lung = tested on: NCI-H460 lung
PC-3 prostate = tested on: PC-3 prostate
IGROV1 ovarian = tested on: IGROV1 ovarian
HT29 colon = tested on: HT29 colon
COLO 205 colon = tested on: COLO 205 colon
A498 renal = tested on: A498 renal
SF-539 CNS = tested on: SF-539 CNS
MALME-3M melanoma = tested on: MALME-3M melanoma
RPMI-8226 leukemia = tested on: RPMI-8226 leukemia
HL-60(TB) leukemia = tested on: HL-60(TB) leukemia
UACC-62 melanoma = tested on: UACC-62 melanoma
OVCAR-4 ovarian = tested on: OVCAR-4 ovarian
OVCAR-5 ovarian = tested on: OVCAR-5 ovarian
UO-31 renal = tested on: UO-31 renal
HS 578T breast = tested on: HS 578T breast
HOP-92 NSCLC = tested on: HOP-92 NSCLC
U251 CNS = tested on: U251 CNS
MDA-MB-435 = tested on: MDA-MB-435
HCT-116 colon = tested on: HCT-116 colon
NCI/ADR-RES ovarian = tested on: NCI/ADR-RES ovarian
SF-268 CNS = tested on: SF-268 CNS
MOLT-4 leukemia = tested on: MOLT-4 leukemia
SW-620 colon = tested on: SW-620 colon

Structure (SMILES): Cn1ccnc1C(=O)/C=C/c1ccc(C(=O)Nc2ccccc2F)cc1
- GI50 (HOP-62 NSCLC): 4.27 µM
- TGI (HOP-62 NSCLC): 17.1 µM
- GI50 (DU-145 prostate): 1.64 µM
- TGI (DU-145 prostate): 3.32 µM
- GI50 (OVCAR-3 ovarian): 2 µM
- TGI (OVCAR-3 ovarian): 4.57 µM
- GI50 (UACC-257 melanoma): 3.51 µM
- TGI (UACC-257 melanoma): 14 µM
- GI50 (KM12 colon): 1.89 µM
- TGI (KM12 colon): 3.82 µM
- GI50 (BT-549 breast): 1.77 µM
- TGI (BT-549 breast): 4.21 µM
- GI50 (NCI-H23 lung): 2.85 µM
- TGI (NCI-H23 lung): 9.43 µM
- GI50 (MCF7 breast): 1.82 µM
- TGI (MCF7 breast): 6.63 µM
- GI50 (NCI-H226 lung): 2.63 µM
- TGI (NCI-H226 lung): 10.3 µM
- GI50 (CAKI-1 renal): 1.04 µM
- TGI (CAKI-1 renal): 4.33 µM
- GI50 (SK-MEL-5 melanoma): 2.14 µM
- TGI (SK-MEL-5 melanoma): 4.56 µM
- GI50 (M14 melanoma): 1.7 µM
- TGI (M14 melanoma): 3.81 µM
- GI50 (SK-MEL-2 melanoma): 6.25 µM
- TGI (SK-MEL-2 melanoma): 28.1 µM
- GI50 (SNB-19 CNS): 2.06 µM
- TGI (SNB-19 CNS): 5.66 µM
- GI50 (LOX IMVI melanoma): 0.636 µM
- TGI (LOX IMVI melanoma): 2.24 µM
- GI50 (T-47D breast): 2.9 µM
- TGI (T-47D breast): 17.8 µM
- GI50 (EKVX NSCLC): 2.9 µM
- TGI (EKVX NSCLC): 11.5 µM
- GI50 (SF-295 CNS): 4.6 µM
- TGI (SF-295 CNS): 16.3 µM
- GI50 (RXF 393 renal): 1.75 µM
- TGI (RXF 393 renal): 3.63 µM
- GI50 (HCT-15 colon): 1.33 µM
- TGI (HCT-15 colon): 4.06 µM
- GI50 (SK-MEL-28 melanoma): 2.04 µM
- TGI (SK-MEL-28 melanoma): 4.59 µM
- GI50 (MDA-MB-231 breast): 3.24 µM
- TGI (MDA-MB-231 breast): 10.5 µM
- GI50 (SNB-75 CNS): 1.36 µM
- TGI (SNB-75 CNS): 8.03 µM
- GI50 (SK-OV-3 ovarian): 6.53 µM
- TGI (SK-OV-3 ovarian): 20.6 µM
- GI50 (HCC-2998 colon): 2.34 µM
- TGI (HCC-2998 colon): 4.67 µM
- GI50 (K-562 leukemia): 0.372 µM
- TGI (K-562 leukemia): > 100 µM
- GI50 (A549 NSCLC): 3.01 µM
- TGI (A549 NSCLC): 13.2 µM
- GI50 (SR leukemia): 0.304 µM
- TGI (SR leukemia): 2.34 µM
- GI50 (786-0 renal): 1.69 µM
- TGI (786-0 renal): 3.32 µM
- GI50 (CCRF-CEM leukemia): 1.18 µM
- TGI (CCRF-CEM leukemia): 7.54 µM
- GI50 (SN12C renal): 2.63 µM
- TGI (SN12C renal): 9.56 µM
- GI50 (OVCAR-8 ovarian): 3.68 µM
- TGI (OVCAR-8 ovarian): 21.6 µM
- GI50 (TK-10 renal): 3.84 µM
- TGI (TK-10 renal): 15.9 µM
- GI50 (NCI-H522 lung): 2.66 µM
- TGI (NCI-H522 lung): 8.76 µM
- GI50 (ACHN renal): 2.01 µM
- TGI (ACHN renal): 4.15 µM
- GI50 (NCI-H460 lung): 1.94 µM
- TGI (NCI-H460 lung): 5.43 µM
- GI50 (PC-3 prostate): 1.89 µM
- TGI (PC-3 prostate): 4.47 µM
- GI50 (IGROV1 ovarian): 2.12 µM
- TGI (IGROV1 ovarian): 5.05 µM
- GI50 (HT29 colon): 2.49 µM
- TGI (HT29 colon): 6.68 µM
- GI50 (COLO 205 colon): 2.74 µM
- TGI (COLO 205 colon): 6.67 µM
- GI50 (A498 renal): 2.41 µM
- TGI (A498 renal): 8.21 µM
- GI50 (SF-539 CNS): 1.75 µM
- TGI (SF-539 CNS): 4.24 µM
- GI50 (MALME-3M melanoma): 1.93 µM
- TGI (MALME-3M melanoma): 4.58 µM
- GI50 (RPMI-8226 leukemia): 0.567 µM
- TGI (RPMI-8226 leukemia): 2.82 µM
- GI50 (HL-60(TB) leukemia): 1.6 µM
- TGI (HL-60(TB) leukemia): 4.33 µM
- GI50 (UACC-62 melanoma): 1.98 µM
- TGI (UACC-62 melanoma): 4.47 µM
- GI50 (OVCAR-4 ovarian): 2.76 µM
- TGI (OVCAR-4 ovarian): 12.8 µM
- GI50 (OVCAR-5 ovarian): 2.42 µM
- TGI (OVCAR-5 ovarian): 6.42 µM
- GI50 (UO-31 renal): 1.38 µM
- TGI (UO-31 renal): 2.67 µM
- GI50 (HS 578T breast): 3.02 µM
- TGI (HS 578T breast): 15.4 µM
- GI50 (HOP-92 NSCLC): 1.9 µM
- TGI (HOP-92 NSCLC): 7.07 µM
- GI50 (U251 CNS): 1.3 µM
- TGI (U251 CNS): 3.29 µM
- GI50 (MDA-MB-435): 2.09 µM
- TGI (MDA-MB-435): 5.04 µM
- GI50 (HCT-116 colon): 0.862 µM
- TGI (HCT-116 colon): 2.35 µM
- GI50 (NCI/ADR-RES ovarian): 3.29 µM
- TGI (NCI/ADR-RES ovarian): 22.5 µM
- GI50 (SF-268 CNS): 2.46 µM
- TGI (SF-268 CNS): 9.16 µM
- GI50 (MOLT-4 leukemia): 2.38 µM
- TGI (MOLT-4 leukemia): 6.41 µM
- GI50 (SW-620 colon): 1.76 µM
- TGI (SW-620 colon): 6.29 µM
